Test results: patent US9321782B2, “Process for preparation of novel 42-O-(heteroalkoxyalkyl) rapamicin compounds with anti-proliferative properties” (MERIL LIFE SCIENCES PVT. LTD., priority 2010, dated 2016)
Where “and” joins values, the source holds several entries; their conditions need not be identical. Equal entries are not always repeated.

Key:
[1] = Stability analysis (HPLC purity on storage) without BHT at various temperatures; assay type: physicochemical; conditions: for Purity (%): without BHT
Protocol: (§1) To check the purity of the 42-O-(heteroalkoxyalkyl) rapamycin compounds the following condition was followed by using High Performance Liquid Chromatography, Phenomenex Synergi Hydro-RP 80a (250×4.6 ) mm, 4 micron column. The mobile phase was 65:15:20 methanol:acetonitile:water mixture. The detector was set at 276 nm and the flow rate was adjusted to 1.5 mL/min. Column temperature was 40° C. 2.0 μg of 42-O-(heteroalkoxyalkyl) rapamycin compounds was injected onto the column in a volume of 5.0 μL methanol with run time of 50 min.
The purity loss was higher at increased temperature, but there was no apparent change in the impurity profile. Table 2A presents the purity of various 42-O-(heteroalkoxyalkyl) rapamycin compounds at different time intervals and temperature conditions.

[2] = Stability analysis (HPLC purity on storage) with various concentrations of BHT at 40° C.; assay type: physicochemical; conditions: sealed container
Protocol: as §1
The inventors have also conducted the stability study of various 42-O-(heteroalkoxyalkyl) rapamycin compounds as mentioned above using various BHT concentrations. The study was conducted at 40° C. temperature in sealed container for 8 weeks.
42-O-(heteroalkoxyalkyl) rapamycin compounds obtained as per procedure described in Example 1 are respectively added with anti-oxidant, namely Butylated Hydroxytoluene (or BHT), at a concentration of 0.1%, 0.2%, 0.5%, and 1.0% (w/w) based on 100% (w/w) of 42-O-(heteroalkoxyalkyl) rapamycin compounds in sealed container to study the stability at 40° C. temperature. […] The purity data with the addition of different amounts of anti-oxidant as added to 42-O-(tetrahydrofuran-3-yl) rapamycin compound, 42-O-(oxetan-3-yl) rapamycin compound and 42-O-(tetrahydropyran-3-yl) rapamycin compound checked at different time intervals are summarized in Table 2B as below mentioned.

[3] = test system: L-929 (ATCC cell lines CCL-1, NCTC clone 929) Mus musculus mouse fibroblast cells; assay: In-vitro cytotoxicity test by extraction method; assay type: cell-based; conditions: extract in contact with L-929 cells for 48 hours
Protocol: In-vitro assessment was done to check the cytotoxic or necrotic potential of the 42-O-(tetrahydrofuran-3-yl) rapamycin and 42-O-(oxetan-3-yl) rapamycin compounds by extraction method. In this study extracts of test substance were kept in contact with a multiple culture of L-929 (ATCC cell lines CCL-1, NCTC clone 929) Mus musculus mouse fibroblast cells for 48 hours. The cells were examined microscopically to assess the changes for its general morphology, vacuolization, detachment, cell lysis and membrane integrity.

rabbit blood [4] = assay: In-vitro haemolysis test; assay type: cell-based; conditions: for Haemolytic Index, Mean ± S. D.: mean of three test extracts, rabbit blood, 4 hrs
Protocol: Haemolysis test was conducted on rabbit blood by in-vitro method to check the haemolytic effect of 42-O-(tetrahydrofuran-3-yl) rapamycin (Merilimus-1) compound and 42-O-(oxetan-3-yl) rapamycin (Merilimus-2) compound. In this study the extracts of the test substances in triplicate were kept in contact with rabbit blood and incubated for 4 hrs. The concentration of plasma haemoglobin liberated in supernatant was calculated by comparing with absorbance of the standard solution in a spectrophotometer at 540 nm.

rabbit blood [5] = assay: Haemocompatibility test (thrombosis, coagulation, platelet count, leucocyte count); assay type: cell-based
Protocol: Haemocompatibility test is conducted to evaluate biological safety of the blood contacting 42-O-([…]) rapamycin and 42-O-(oxetan-3-yl) rapamycin compounds for the medical device. The interaction of test substance with rabbit blood was checked for thrombosis, coagulation, platelet count and leucocyte count.

[6] = test system: human aorta smooth muscle cell cultures (hAoSMCs); assay: In-vitro anti-proliferative potency, BrdU assay, human smooth muscle cells; assay type: cell-based; conditions: BrdU incorporation, over 5 orders of magnitude concentration, compared with rapamycin
From the text: (§2) In-vitro assessment of relative anti-proliferative effect of novel mTOR inhibitors 42-O-(oxetan-3-yl) rapamycin compound and 42-O-(tetrahydrofuran-3-yl) rapamycin compound with rapamycin was done on human and rabbit smooth muscle cell culture models. In which, human aorta and rabbit illiac artery smooth muscle cell cultures were subjected to increasing doses of 42-O-(oxetan-3-yl) rapamycin compound 42-O-(tetrahydrofuran-3-yl) rapamycin compound and rapamycin over 5 orders of magnitude concentration in the cell culture medium. The ability of the cell culture to reproduce was assessed after drug exposure by addition of a BromodeoxyUridine (BrdU) coloured reagent which causes a colour change in the surviving cells. The extent of colour development was quantified at 450 nm wavelength using a spectrophotometer microplate reader (BMG Labtech, FLUOstar OPTIMA). […] On the contrary, lower OD values reflect less incorporation on BrdU and a shift towards cell inhibition. Growth inhibition was calculated by subtracting positive control OD values, which represent 100% uninhibited growth.

[7] = test system: rabbit illiac artery smooth muscle cell cultures (RbIASMCs); assay: In-vitro anti-proliferative potency, BrdU assay, rabbit smooth muscle cells; assay type: cell-based; conditions: BrdU incorporation, over 5 orders of magnitude concentration, compared with rapamycin
From the text: as §2

[8] = test group, individual rabbits No. 1-3

## COC1CC(C[C@H](C)[C@@H]2CC(=O)[C@H](C)/C=C(\C)C(O)[C@@H](OC)C(=O)[C@H](C)C[C@H](C)/C=C/C=C/C=C(\C)[C@@H](OC)C[C@@H]3CC[C@@H](C)[C@@](O)(O3)C(=O)C(=O)N3CCCC[C@H]3C(=O)O2)CCC1OC1CCOC1 (some centres unmarked) [Merilimus-1, 42-O-(tetrahydrofuran-3-yl) rapamycin]
[1]; purified compounds without anti-oxidant
  Stability (in words): more thermally stable
[1]; 5° C. (sealed), 00 weeks after synthesis
  Purity (%): 98.6%
[1]; 5° C. (sealed), 02 weeks after synthesis
  Purity (%): 97.8%
[1]; 5° C. (sealed), 04 weeks after synthesis
  Purity (%): 97.0%
[1]; 5° C. (sealed), 08 weeks after synthesis
  Purity (%): 96.7%
[1]; 5° C. (sealed), 12 weeks after synthesis
  Purity (%): 96.3%
[1]; 25° C. (sealed), 00 weeks after synthesis
  Purity (%): 98.7%
[1]; 25° C. (sealed), 02 weeks after synthesis
  Purity (%): 97.6%
[1]; 25° C. (sealed), 04 weeks after synthesis
  Purity (%): 96.9%
[1]; 25° C. (sealed), 08 weeks after synthesis
  Purity (%): 96.7%
[1]; 25° C. (sealed), 12 weeks after synthesis
  Purity (%): 94.1%
[1]; 25° C. (unsealed), 00 weeks after synthesis
  Purity (%): 98.4%
[1]; 25° C. (unsealed), 02 weeks after synthesis
  Purity (%): 97.1%
[1]; 25° C. (unsealed), 04 weeks after synthesis
  Purity (%): 96.7%
[1]; 25° C. (unsealed), 08 weeks after synthesis
  Purity (%): 95.2%
[1]; 25° C. (unsealed), 12 weeks after synthesis
  Purity (%): 93.6%
[1]; 40° C. (sealed), 00 weeks after synthesis
  Purity (%): 98.6%
[1]; 40° C. (sealed), 02 weeks after synthesis
  Purity (%): 96.7%
[1]; 40° C. (sealed), 04 weeks after synthesis
  Purity (%): 96.3%
[1]; 40° C. (sealed), 08 weeks after synthesis
  Purity (%): 94.7%
[1]; 40° C. (sealed), 12 weeks after synthesis
  Purity (%): 93.5%
[2]; BHT 0.0% (w/w), 0 week
  Purity (%): 98.6%
[2]; BHT 0.0% (w/w), 2 weeks
  Purity (%): 96.7%
[2]; BHT 0.0% (w/w), 4 weeks
  Purity (%): 96.3%
[2]; BHT 0.0% (w/w), 8 weeks
  Purity (%): 94.7%
[2]; BHT 0.1% (w/w), 0 week
  Purity (%): 98.6%
[2]; BHT 0.1% (w/w), 2 weeks
  Purity (%): 98.5%
[2]; BHT 0.1% (w/w), 4 weeks
  Purity (%): 98.5%
[2]; BHT 0.1% (w/w), 8 weeks
  Purity (%): 98.4%
[2]; BHT 0.2% (w/w), 0 week
  Purity (%): 98.5%
[2]; BHT 0.2% (w/w), 2 weeks
  Purity (%): 98.5%
[2]; BHT 0.2% (w/w), 4 weeks
  Purity (%): 98.5%
[2]; BHT 0.2% (w/w), 8 weeks
  Purity (%): 98.4%
[2]; BHT 0.5% (w/w), 0 week
  Purity (%): 98.5%
[2]; BHT 0.5% (w/w), 2 weeks
  Purity (%): 98.4%
[2]; BHT 0.5% (w/w), 4 weeks
  Purity (%): 98.4%
[2]; BHT 0.5% (w/w), 8 weeks
  Purity (%): 98.3%
[2]; BHT 1.0% (w/w), 0 week
  Purity (%): 98.5%
[2]; BHT 1.0% (w/w), 2 weeks
  Purity (%): 98.4%
[2]; BHT 1.0% (w/w), 4 weeks
  Purity (%): 98.4%
[2]; BHT 1.0% (w/w), 8 weeks
  Purity (%): 98.3%
[2]; with various concentrations of BHT (concentration not given)
  Purity after eight-weeks of storage: 98.3%
[3]
  Toxic effect on cells (in words): did not reveal any toxic effect on cells
Rabbit blood [4]; individual test extracts 1-3, rabbit blood, incubated 4 hrs, = Haemoglobin released/Haemoglobin present × 100
  Haemolytic Index: 1.4 and 1.7 and 1.9
Rabbit blood [4]
  Haemolytic Index, Mean ± S. D.: 1.7 ± 0.02
Rabbit blood [4]; listed as 42-O-(tetrahydrofuran-3-yl) rapamycin
  Haemolytic Index, Mean ± S. D.: 1.7
Rabbit blood [4]; on the basis of haemolytic index
  Haemolytic nature (in words): non-haemolytic
Rabbit blood [5]; all haematological findings compared to control
  Haemocompatibility (in words): haemocompatible
Rabbit blood [5]; [8]
  Coagulation (PTT in sec.): 36 sec. (2×) and 39 sec.
  Differential leucocyte count: Basophile %: 00%
  Differential leucocyte count: Eosinophil %: 01%
  Differential leucocyte count: Lymphocyte %: 43% and 50% (2×)
  Differential leucocyte count: Monocyte %: 01% (2×) and 02%
  Differential leucocyte count: Neutrophil %: 55% and 47% and 48%
  Distribution of cells: Platelets: Normal
  Distribution of cells: RBC: Normal
  Distribution of cells: WBC: Normal
  Leucocyte count: 7.3 Thousand/cmm and 6.8 Thousand/cmm and 7.4 Thousand/cmm
  Platelet count: 4.9 lakhs/cmm and 4.6 lakhs/cmm and 4.5 lakhs/cmm
  Thrombosis: Nil
[6]
  Growth suppression of smooth muscle cells (in words): more effectively inhibited growth of smooth muscle cells than rapamycin
[7]
  Growth suppression of smooth muscle cells (in words): more effectively inhibited growth of smooth muscle cells than rapamycin
